# Measured values: patent publication EP1903028A1, “Conjugates of glutamate and NMDA receptor channel blockers without excito-toxic effects” (Tschollar,, Werner, priority 2006, dated 2008)
# Read-outs that look alike come from different tables or passages of the source.
# Assays:
# rats [1] = assay: Scopolamine-induced memory impairment, passive avoidance; format: in vivo; details: Compound 1: 1 and 10 mg/kg, i.p.; significant (p<0.05) at 10 mg/kg
# Method: (§1) The cleavage is inhibited by the specific aminopeptidase A inhibitor amastatin. The amount of Compound 2 produced by cleavage of Compound 1 after 3 hours incubation with hippocampal slices is shown. AMA=Amastatin. • FIGS. 3A,B show inhibition of NMDA function by Compound 2. […] Effects of Compound 2 on [^3H]MK-801 binding enhanced by glycine (panel A), glutamate (panel B) and spermine (panel C). […] The 3H-MK-801 concentration was approx. 3 nM in all the experiments. […] Effect of Compound 1 administered i.p. twice a day (30 min before session and at 5.00 p.m.) for 4 days. […] Data are Mean ± s.e.m. of the efficiency indexes grouped in 2-day intervals. […] Values represent the median latency (sec) to enter the shock compartment and interquartile ranges. †P <0.05 vs. scopolamine + (FS), ‡P < 0.01 vs. saline + (FS) (log rank test). […] Values represent the median latency (s) to enter the shock compartment and interquartile ranges. **P < 0.01 vs. vehicle no ECS, †P< 0.05 and ‡P< 0.01 vs. vehicle + ECS (log rank test).
# In this experiment, Compound 1 was tested to determine whether it could reverse scopolamine-induced memory impairment in a passive-avoidance paradigm in rats.
# rats [2] = assay: Radial maze learning test; format: in vivo; details: for test acquisition in the radial maze: Compound 1: 1-30 mg/kg, versus control animals
# Method: In another experiment of learning, a radial maze test was used. The radial maze consisted of eight arms radiating from a centre platform. The platform was 40 cm in diameter and the eight arms were 60 cm long, 13 cm wide, with walls 10 cm high. The surface of the maze was elevated 50 cm from the floor. Plastic food cups (4 cm in diameter) were at the end of each arm. One 50 mg micro-pellet was placed in a cup at the beginning of each trial. In the training session, the rat was placed in the centre of the platform facing arm #4 and allowed to freely explore the maze. The animal was left in the maze until it ate all of the 24 pellets placed three per arm.
# in vivo = details: rat, 30 mg/kg
# Method: The average (± s.e.m.) plasma and cerebrospinal fluid levels of Compound 1, after a single i.p. or oral administration of 30 mg/kg plotted against time (h), are given in Figure 1. Compound 1 appeared in plasma shortly after both oral and i.p. administration, with a lag-time of 0.12 h. […] Compound 1 crossed the blood-CSF barrier very rapidly, showing lag times of 0.1-0.23 h after oral and i.p. administration, respectively. The maximum concentration of Compound 1 in the CSF was reached 45-60 min after oral and i.p. administration. […] Compound 1 therefore efficiently crosses into the CSF in rats.
# rats [3] = assay: Lever-holding operant behaviour (Skinner Box); format: in vivo; details: 3-10-30 mg/kg i.p., 14 days, p=0.007 versus control
# Method: In a further test of learning, lever-holding operant behaviour was tested in a standard rodent operant conditioning chamber (Skinner Box). Rats were trained to press the lever for water reward on a continuous reinforcement schedule, for which each lever pressing was rewarded. Daily sessions lasted 30 min and were performed under a green light. Water was restricted to a 30 min post-session period. After two days of stabilisation, rats were subjected to a visual discrimination schedule, in which a green light signalled the availability of the reinforcement for 60 sec, followed by a 30 sec interval with no reinforcement. Daily sessions lasted 30 min and were repeated for 14 days. Data were expressed as the Efficiency Index, which is a ratio of reinforced (correct responses during a session) to non-reinforced responses.
# [4] = system: gerbils subjected to bilateral occlusion of the carotid arteries; assay: Neuro-protection after bilateral occlusion of the carotid arteries in vivo; design: species or system Mongolian gerbils
# Method: This experiment investigated the neuro-protective effects of Compound 2 in gerbils subjected to bilateral occlusion of the carotid arteries. Mongolian gerbils were anaesthetised with halothane and the right and left common carotid arteries were occluded for a period of 5 min. […] The brains were cut into 10 µm-thick sections in the area of the hippocampus and sections were stained with cresyl violet. Quantitative assessment of area occupied by CA pyramidal neurons was performed using an image analyser (Kontron, KS300). For each animal, measurements were made in a defined field from both hippocampi in 4 coronal sections. The raw data were represented by the mean of 8 measures. The pattern of hippocampal neuro-degeneration following ischemia consisted of a significant decrease of neuronal nuclei area.
# Compound 2 at a dose of 16 mg/kg, was 100% protective (see Figure 5).
# CA1 pyramidal neurons = assay: NMDA excito-toxicity in hippocampal slices in vitro (area of CA1 pyramidal neurons); format: cell-based, rat; details: 100 µM NMDA, compound added 15 min prior, 45 min incubation
# Method: In this experiment, slices were obtained from hippocampi of young (8 day old) rats. After one hour of pre-incubation, NMDA was added to give a final concentration of 100 µM. Either Compound 1 or Compound 2 was added 15 min prior to NMDA and the incubation was carried out for 45 min. Three slices of each sample were collected and fixed with glutaraldehyde (5%). After embedding and freezing, sections (4 µm) were stained with Cresyl violet. Neuronal injury was studied with light microscopy using an imaging analyser (Kontron, KS300). The area occupied by CA1 pyramidal neurons was measured in an analyser-defined field. The pattern of hippocampal neuro-degeneration following NMDA-stimulation consisted of a significant decrease in neuronal nuclei area. […] In contrast, Compound 1 had no effect on NMDA-induced neuronal damage (results not shown).
# aminopeptidase A = biological target: T1, aminopeptidase A (Rattus norvegicus, UniProt P50123); format: in vitro ADME
# T1 construct: Hippocampi were removed on ice and coronal slices chopped (0.40 mm thick); from tissue; host or cells: rat hippocampal slices
# Method: Animals were housed in plastic cages, with free access to standard laboratory food and water, under controlled conditions of lighting, humidity and temperature. Rats were killed by decapitation and brains were quickly removed and immediately transferred in ice-cold artificial cerebrospinal fluid (aCSF) having the following composition (mM):125 NaCl, 3 KCl, 1.2 CaCl2, 1.2 MgSO4, 1 NaH2PO4, 22 NaHCO3 and 10 glucose (aerated with 95% O2 and 5% CO2 at 37°C), pH 7.2-7.4. Hippocampi were removed on ice and coronal slices chopped (0.40 mm thick). Slices were then incubated for 1 h in the presence of a 95% O2and 5% CO2 current (37°C). After washing with fresh aCSF (37°C), slices were transferred to a modified 24 chamber's cell culture well (2 slices per chamber) adapted to accept a constant current of 95% O2 and 5% CO2 all experiment time long. 2 ml aCSF was present in each chamber. Some experiments were performed in a modified aCSF containing 1mM EGTA in the absence of Ca^2+ ions. Drugs were added immediately before slices. After 1h incubation at 37°C, 80 µl aCSF per chamber was drawn in order to evaluate the metabolization time-course. After 3h incubation the experiment ended with a new 80 µl drawing.
# Rat hippocampal slices, incubated in physiological conditions (95% 02; 5% CO2 at 37°C, pH 7.2-7.4), metabolized Compound 1 ((S)-4-amino-5-[(4,4-dimethylcyclohexyl)-amino]-5-oxo-pentanoic acid) into Compound 2 (4,4-dimethyl-cyclohexamine) + glutamic acid. After 1h incubation 2,5% ± 0,3% (n=2) Compound 1 was cleaved to yield Compound 2. After 3h incubation 9,0% ± 0,0% (n=2) Compound 1 was cleaved to Compound 2. In the presence of 3 µM amastatin, a selective inhibitor of aminopeptidase A, the cleavage of Compound 1 at 1h and 3h was reduced to 0,5% and 2,0%, respectively (see Figure 2). […] Since aminopeptidase A is a Ca++-dependent enzyme, the cleavage of Compound 1 was then examined under Ca++ -free conditions. In the absence of Ca++ ions, Compound 1 cleavage was inhibited by 76% at 1h and 3h. Aminopeptidase A therefore appears to be the principal enzyme responsible for the cleavage of Compound 1 into Compound 2 plus glutamate.
# [5] = Electroconvulsive shock-induced memory impairment; format: in vivo; details: Compound 1: 3, 10 and 30 mg/kg; significant at 10 and 30 mg/kg (P <0.05, P <0.01)
# Method: as §1
# In another model of memory impairment, electroconvulsive shock was employed as a memory de-stabilizer. […] For doses of 10 and 30 mg/kg the effect was statistically significant (P <0.05 and P <0.01, respectively) (see Figure 7B).
# rats [6] = assay: Step-through active avoidance test (acquisition of active avoidance behaviour); format: in vivo; details: for percent of conditioned avoidance: Compound 1: 3 and 10 mg/kg i.p. twice a day, 5 days, p<0.001
# Method: as §1
# The acquisition of active avoidance behaviour was evaluated during one 40-trial daily session for 5 consecutive days. Compound 1, when given at doses of 3 and 10 mg/kg, increased the percent of conditioned avoidance (see Figure 6A).
# NMDAR (subtype NR1/NR2A) = biological target: T2, NMDAR (subtype NR1/NR2A) (Homo sapiens, UniProt Q05586+Q12879); assay: Glutamate-evoked currents in NMDA receptor-transfected oocytes; format: cell-based; details: glutamate 10uM, 100uM glycine, read-out: IC50, inhibition of glutamate-stimulated Ca current
# T2 construct: expressed in transfected cells
# Method: Glutamate stimulates an inward Ca current through the NMDA receptor channel by binding to a specific ligand-binding site at the NR1/NR2 subunit interface and opening the ion channel to the influx of calcium. Glutamate (10uM) was added to oocytes transfected with the NMDAR (subtype NR1/NR2A) in the presence of 100uM glycine and increasing amounts of Compound 2.
# NMDA receptor = assay: [3H]MK-801 binding to washed rat cortical membranes enriched for NMDA receptors; details: binding enhanced by glycine, glutamate or spermine; 10, 100, 1000 µM Compound 2; approx. 3 nM 3H-MK-801
# Method: as §1
# MK-801 (dizocilpine) is an open-channel ligand of the NMDA Ca channel. Washed rat cortical membranes enriched for NMDA receptors were incubated with increasing concentrations of the co-agonists glycine or glutamate, or the positive modulator spermine, and Compound 2. The binding of ^3H MK801 was then measured. […]
# T1 sequence (P50123 whole entry): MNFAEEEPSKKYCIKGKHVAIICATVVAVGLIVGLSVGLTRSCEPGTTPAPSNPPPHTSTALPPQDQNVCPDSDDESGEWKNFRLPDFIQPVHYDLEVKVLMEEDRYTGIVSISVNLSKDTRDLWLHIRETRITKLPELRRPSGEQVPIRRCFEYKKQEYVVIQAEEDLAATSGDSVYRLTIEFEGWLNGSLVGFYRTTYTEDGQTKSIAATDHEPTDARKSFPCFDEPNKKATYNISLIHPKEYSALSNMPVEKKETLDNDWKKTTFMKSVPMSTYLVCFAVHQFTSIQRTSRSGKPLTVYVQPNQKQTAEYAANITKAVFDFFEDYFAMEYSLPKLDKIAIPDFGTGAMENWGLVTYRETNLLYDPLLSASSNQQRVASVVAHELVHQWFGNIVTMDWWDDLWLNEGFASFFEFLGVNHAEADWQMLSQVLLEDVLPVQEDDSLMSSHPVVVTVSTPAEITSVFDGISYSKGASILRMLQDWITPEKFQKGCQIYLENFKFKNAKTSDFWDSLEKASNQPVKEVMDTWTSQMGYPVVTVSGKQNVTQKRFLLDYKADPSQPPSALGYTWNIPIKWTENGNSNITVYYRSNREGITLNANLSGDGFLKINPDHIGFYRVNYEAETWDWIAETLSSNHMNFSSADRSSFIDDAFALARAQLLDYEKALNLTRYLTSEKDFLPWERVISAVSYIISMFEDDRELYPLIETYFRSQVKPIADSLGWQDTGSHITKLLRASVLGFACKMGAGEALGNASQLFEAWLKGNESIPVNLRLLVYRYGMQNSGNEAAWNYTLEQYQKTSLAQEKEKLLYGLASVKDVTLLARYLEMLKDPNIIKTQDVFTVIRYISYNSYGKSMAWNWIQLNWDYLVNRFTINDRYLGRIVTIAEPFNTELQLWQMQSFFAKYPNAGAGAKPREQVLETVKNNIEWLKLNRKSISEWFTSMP
# T2 sequence (Q12879 23-1464, other chains not shown): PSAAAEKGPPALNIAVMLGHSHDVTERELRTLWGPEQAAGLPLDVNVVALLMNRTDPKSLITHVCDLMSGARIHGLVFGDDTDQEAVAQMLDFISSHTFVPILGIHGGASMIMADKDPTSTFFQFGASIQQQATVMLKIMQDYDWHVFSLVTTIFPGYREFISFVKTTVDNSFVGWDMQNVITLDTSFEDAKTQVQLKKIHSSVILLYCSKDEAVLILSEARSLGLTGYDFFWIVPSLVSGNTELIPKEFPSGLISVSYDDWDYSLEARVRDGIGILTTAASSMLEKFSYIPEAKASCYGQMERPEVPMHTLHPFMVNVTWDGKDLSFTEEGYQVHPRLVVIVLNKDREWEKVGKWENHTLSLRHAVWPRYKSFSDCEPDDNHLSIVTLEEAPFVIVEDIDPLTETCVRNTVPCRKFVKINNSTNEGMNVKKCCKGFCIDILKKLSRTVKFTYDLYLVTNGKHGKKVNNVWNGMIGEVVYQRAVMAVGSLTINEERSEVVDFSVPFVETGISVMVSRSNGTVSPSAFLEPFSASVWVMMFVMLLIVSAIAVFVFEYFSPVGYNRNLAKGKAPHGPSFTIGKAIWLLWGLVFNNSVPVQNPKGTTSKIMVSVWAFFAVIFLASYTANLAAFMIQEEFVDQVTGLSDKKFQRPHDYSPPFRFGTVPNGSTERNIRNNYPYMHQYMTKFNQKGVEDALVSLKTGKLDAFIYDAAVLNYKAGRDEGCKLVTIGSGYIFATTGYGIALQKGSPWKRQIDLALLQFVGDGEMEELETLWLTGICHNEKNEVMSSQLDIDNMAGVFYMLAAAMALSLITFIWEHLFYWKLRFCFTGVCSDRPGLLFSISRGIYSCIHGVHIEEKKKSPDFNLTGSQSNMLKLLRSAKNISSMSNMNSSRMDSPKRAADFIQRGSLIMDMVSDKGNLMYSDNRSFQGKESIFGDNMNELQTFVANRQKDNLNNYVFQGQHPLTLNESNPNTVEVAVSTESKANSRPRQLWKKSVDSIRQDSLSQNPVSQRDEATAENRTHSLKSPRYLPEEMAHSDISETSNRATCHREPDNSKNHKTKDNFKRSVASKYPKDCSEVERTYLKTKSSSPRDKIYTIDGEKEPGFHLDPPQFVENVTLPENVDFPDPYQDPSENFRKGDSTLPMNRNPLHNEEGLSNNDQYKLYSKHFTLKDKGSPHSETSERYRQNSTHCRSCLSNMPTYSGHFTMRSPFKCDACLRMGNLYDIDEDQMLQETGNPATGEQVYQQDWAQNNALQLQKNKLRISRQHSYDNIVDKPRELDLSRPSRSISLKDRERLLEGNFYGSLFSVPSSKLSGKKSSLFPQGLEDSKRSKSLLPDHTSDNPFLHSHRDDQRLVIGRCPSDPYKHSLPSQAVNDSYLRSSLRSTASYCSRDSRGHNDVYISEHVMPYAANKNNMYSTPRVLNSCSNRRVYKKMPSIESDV
smiles,measurement,setting,value
"CC1(C)CCC(NC(=O)[C@@H](N)CCC(=O)O)CC1 [Compound 1, (S)-4-amino-5-(4,4-dimethylcyclohexylamino)-5-oxopentanoic acid]","retention latency, reversal of scopolamine-induced memory impairment",rats [1],dose-dependently increased latency
same,number of sessions to reach acquisition criterion,"rats [2]; 10 and 30 mg/kg (P <0.05, P <0.01, respectively)",decreased
same,test acquisition in the radial maze,rats [2],faster test acquisition
same,Tmax,in vivo,1 h
same,plasma lag-time,in vivo,0.12 h
same,time to maximum concentration in the CSF,in vivo,45 to 60 min
same,Kp,in vivo; ip,0.48
same,lag time for crossing the blood-CSF barrier,in vivo; ip,0.23 h
same,Kp,in vivo; po,0.62
same,lag time for crossing the blood-CSF barrier,in vivo; po,0.1 h
same,percent of reinforced responses (Efficiency Index),rats [3],increased in a dose-dependent manner
same,mortality,"[4]; 50mg/kg, ischemia alone 50% 7-day mortality",zero
same,effect on NMDA-induced neuronal damage,CA1 pyramidal neurons,no effect
same,Compound 1 cleavage inhibited,"aminopeptidase A; in the absence of Ca++ ions, at 1h and 3h",76%
same,Compound 1 cleaved to yield Compound 2,"aminopeptidase A; rat, 1 h, pH 7.2","2,5% ± 0,3%"
same,Compound 1 cleaved to Compound 2,"aminopeptidase A; rat, 3 h, pH 7.2","9,0% ± 0,0%"
same,step-down latency after electroconvulsive shock,[5],dose-dependently increased step-down latency
same,percent of conditioned avoidance,rats [6],increased
same,uncoordinated escape responses or spontaneous inter-trial responses,"rats [6]; rat, in vivo",did not affect
"CC(C)C[C@@H](N)[C@H](O)C(=O)N[C@H](C(=O)N[C@H](C(=O)N[C@@H](CC(=O)O)C(=O)O)C(C)C)C(C)C [Amastatin, reference compound]",IC50,"aminopeptidase A; rat hippocampal slices, read-out: IC50, inhibition of cleavage of Compound 1",0.3 µM
"CC1(C)CCC(N)CC1 [Compound 2, 4,4-dimethyl-cyclohexylamine]","retention latency, reversal of scopolamine-induced memory impairment",rats [1],unable to reverse
same,test acquisition in the radial maze,rats [2],without effect
same,protective (7-day mortality),"[4]; 16 mg/kg, 1 hour prior to ischemia, ischemia alone 50% mortality",100%
same,protection from neuronal degeneration and death,[4]; administered 1 hour prior to ischemia,dose-dependently protected
same,IC50,"CA1 pyramidal neurons; Rattus norvegicus, Pyramidal neuron, slices of 8 day old rats, read-out: IC50, prevention of NMDA-induced damage",189 ± 42.4 µM
same,step-down latency after electroconvulsive shock,[5],without effect
same,percent of conditioned avoidance,rats [6],without activity
same,IC50,NMDAR (subtype NR1/NR2A); 100 millivolts,30 µM
same,IC50,NMDAR (subtype NR1/NR2A); -60 millivolts,117 µM
same,inhibition of MK-801 binding,NMDA receptor,inhibited MK-801 binding in a dose-dependent fashion
